Experimental data from US12077503B2, “Substituted cyclic amides and their use as herbicides” (FMC CORPORATION, priority 2015, dated 2024).

How the values were obtained:
Format in all cases: in vivo
[1] = tested on: barnyardgrass (Echinochloa crus-galli); assay: Test G Post-Emergence Protocol; details: Echinochloa crus-galli, post-emergence, 312 h; for pest or weed control at 15.625 g/ha: 15.625 g ai/ha, evaluated after 13 days (100=total damage to plant; 0=no damage to plant), read-out: Barnyardgrass damage rating; for pest or weed control at 62.5 g/ha: 62.5 g ai/ha, read-out: Barnyardgrass damage rating (100=total damage to plant; 0=no damage to plant); for pest or weed control at 62.5 g/ha / pest or weed control at 250 g/ha: evaluated after 13 days; for pest or weed control at 250 g/ha: 250 g ai/ha, read-out: damage to plant, Barnyardgrass (100=total damage to plant; 0=no damage to plant)
Method in brief: (§1)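 Values are percent visual injury at 13 days after treatment (0 none, 100 total). Treatment was a post-emergence spray at 15.625, 62.5 or 250 g/ha on 8-day-old pot plants kept at 24/16 °C.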

[2] = tested on: velvetleaf (Abutilon theophrasti); assay: Test G Post-Emergence Protocol; details: Abutilon theophrasti, post-emergence, 312 h; for pest or weed control at 15.625 g/ha: 15.625 g ai/ha, evaluated after 13 days (100=total damage to plant; 0=no damage to plant), read-out: Velvetleaf damage rating; for pest or weed control at 62.5 g/ha: 62.5 g ai/ha, read-out: Velvetleaf damage rating (100=total damage to plant; 0=no damage to plant); for pest or weed control at 62.5 g/ha / pest or weed control at 250 g/ha: evaluated after 13 days; for pest or weed control at 250 g/ha: 250 g ai/ha, read-out: damage to plant, Velvetleaf (100=total damage to plant; 0=no damage to plant)
Method in brief: as §1

[3] = tested on: redroot pigweed (Amaranthus retroflexus); assay: Test G Post-Emergence Protocol; details: Amaranthus retroflexus, post-emergence, 312 h; for pest or weed control at 15.625 g/ha: 15.625 g ai/ha, evaluated after 13 days (100=total damage to plant; 0=no damage to plant), read-out: Pigweed, Redroot damage rating; for pest or weed control at 62.5 g/ha: 62.5 g ai/ha, read-out: Pigweed, Redroot damage rating (100=total damage to plant; 0=no damage to plant); for pest or weed control at 62.5 g/ha / pest or weed control at 250 g/ha: evaluated after 13 days; for pest or weed control at 250 g/ha: 250 g ai/ha, read-out: damage to plant, Pigweed, Redroot (100=total damage to plant; 0=no damage to plant)
Method in brief: as §1

[4] = tested on: ivy-leaved morning glory (Ipomoea hederacea); assay: Test G Post-Emergence Protocol; details: Ipomoea, post-emergence, 312 h; for pest or weed control at 15.625 g/ha: 15.625 g ai/ha, evaluated after 13 days (100=total damage to plant; 0=no damage to plant), read-out: Morningglory, Ivy-leaved damage rating; for pest or weed control at 62.5 g/ha: 62.5 g ai/ha, read-out: Morningglory, Ivy-leaved damage rating (100=total damage to plant; 0=no damage to plant); for pest or weed control at 62.5 g/ha / pest or weed control at 250 g/ha: evaluated after 13 days; for pest or weed control at 250 g/ha: 250 g ai/ha, read-out: damage to plant, Morningglory, Ivy-leaved (100=total damage to plant; 0=no damage to plant)
Method in brief: as §1

[5] = tested on: giant foxtail (Setaria faberi); assay: Test G Post-Emergence Protocol; details: Setaria faberi, post-emergence, 312 h; for pest or weed control at 15.625 g/ha: 15.625 g ai/ha, evaluated after 13 days (100=total damage to plant; 0=no damage to plant), read-out: Foxtail, Giant damage rating; for pest or weed control at 62.5 g/ha: 62.5 g ai/ha, read-out: Foxtail, Giant damage rating (100=total damage to plant; 0=no damage to plant); for pest or weed control at 62.5 g/ha / pest or weed control at 250 g/ha: evaluated after 13 days; for pest or weed control at 250 g/ha: 250 g ai/ha, read-out: damage to plant, Foxtail, Giant (100=total damage to plant; 0=no damage to plant)
Method in brief: as §1

corn (Zea mays) [6] = assay: Test G Post-Emergence Protocol; details: Zea mays, post-emergence, 312 h; for plant injury at 15.625 g/ha: 15.625 g ai/ha, evaluated after 13 days (100=total damage to plant; 0=no damage to plant), read-out: Corn damage rating; for plant injury at 62.5 g/ha: 62.5 g ai/ha, read-out: Corn damage rating (100=total damage to plant; 0=no damage to plant); for plant injury at 62.5 g/ha / plant injury at 250 g/ha: evaluated after 13 days; for plant injury at 250 g/ha: 250 g ai/ha, read-out: damage to plant, Corn (100=total damage to plant; 0=no damage to plant)
Method in brief: as §1

[7] = tested on: barnyardgrass (Echinochloa crus-galli); assay: Test G Pre-Emergence Protocol; details: Echinochloa crus-galli, pre-emergence, 312 h, evaluated after 13 days; for pest or weed control at 15.625 g/ha: 15.625 g ai/ha, read-out: Barnyard grass damage rating (100=total damage to plant; 0=no damage to plant); for pest or weed control at 62.5 g/ha: 62.5 g ai/ha, 100=total damage to plant, 0=no damage to plant, read-out: plant damage rating, Barnyardgrass; for pest or weed control at 250 g/ha: 250 g ai/ha, read-out: Barnyardgrass damage rating (100=total damage to plant; 0=no damage to plant)
Method in brief: (§2)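 Glasshouse pre-emergence test: soil-sown seeds, sprayed after 1 d at 15.625, 62.5 or 250 g/ha. Conditions 24/16° C day/night, 14 h light, 65% humidity, watering twice daily. Rating 13 d post-spray (100 = total damage).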

[8] = tested on: velvetleaf (Abutilon theophrasti); assay: Test G Pre-Emergence Protocol; details: Abutilon theophrasti, pre-emergence, 312 h, evaluated after 13 days; for pest or weed control at 15.625 g/ha: 15.625 g ai/ha; for pest or weed control at 15.625 g/ha / pest or weed control at 250 g/ha: read-out: Velvetleaf damage rating (100=total damage to plant; 0=no damage to plant); for pest or weed control at 62.5 g/ha: 62.5 g ai/ha, 100=total damage to plant, 0=no damage to plant, read-out: plant damage rating, Velvetleaf; for pest or weed control at 250 g/ha: 250 g ai/ha
Method in brief: as §2

[9] = tested on: redroot pigweed (Amaranthus retroflexus); assay: Test G Pre-Emergence Protocol; details: Amaranthus retroflexus, pre-emergence, 312 h, evaluated after 13 days; for pest or weed control at 15.625 g/ha: 15.625 g ai/ha; for pest or weed control at 15.625 g/ha / pest or weed control at 250 g/ha: read-out: Pigweed, Redroot damage rating (100=total damage to plant; 0=no damage to plant); for pest or weed control at 62.5 g/ha: 62.5 g ai/ha, 100=total damage to plant, 0=no damage to plant, read-out: plant damage rating, Pigweed, Redroot; for pest or weed control at 250 g/ha: 250 g ai/ha
Method in brief: as §2

[10] = tested on: ivy-leaved morning glory (Ipomoea hederacea); assay: Test G Pre-Emergence Protocol; details: Ipomoea, pre-emergence, 312 h, evaluated after 13 days; for pest or weed control at 15.625 g/ha: 15.625 g ai/ha, read-out: Morning-glory, Ivy-leaved damage rating (100=total damage to plant; 0=no damage to plant); for pest or weed control at 62.5 g/ha: 62.5 g ai/ha, 100=total damage to plant, 0=no damage to plant, read-out: plant damage rating, Morningglory, Ivy-leaved; for pest or weed control at 250 g/ha: 250 g ai/ha, read-out: Morningglory, Ivy-leaved damage rating (100=total damage to plant; 0=no damage to plant)
Method in brief: as §2

[11] = tested on: giant foxtail (Setaria faberi); assay: Test G Pre-Emergence Protocol; details: Setaria faberi, pre-emergence, 312 h, evaluated after 13 days; for pest or weed control at 15.625 g/ha: 15.625 g ai/ha; for pest or weed control at 15.625 g/ha / pest or weed control at 250 g/ha: read-out: Foxtail, Giant damage rating (100=total damage to plant; 0=no damage to plant); for pest or weed control at 62.5 g/ha: 62.5 g ai/ha, 100=total damage to plant, 0=no damage to plant, read-out: plant damage rating, Foxtail, Giant; for pest or weed control at 250 g/ha: 250 g ai/ha
Method in brief: as §2

corn (Zea mays) [12] = assay: Test G Pre-Emergence Protocol; details: Zea mays, pre-emergence, 312 h, evaluated after 13 days; for plant injury at 15.625 g/ha: 15.625 g ai/ha; for plant injury at 15.625 g/ha / plant injury at 250 g/ha: read-out: Corn damage rating (100=total damage to plant; 0=no damage to plant); for plant injury at 62.5 g/ha: 62.5 g ai/ha, 100=total damage to plant, 0=no damage to plant, read-out: plant damage rating, Corn; for plant injury at 250 g/ha: 250 g ai/ha
Method in brief: as §2

## Cc1ccc([C@H]2CN(C)C(=O)[C@@H]2C(=O)Nc2ccccc2F)cc1Cl (racemic) [Compound 1420]
[1]
  pest or weed control at 15.625 g/ha: 10%
  pest or weed control at 62.5 g/ha: 40%
  pest or weed control at 250 g/ha: 40%
[2]
  pest or weed control at 15.625 g/ha: 0%
  pest or weed control at 62.5 g/ha: 0%
  pest or weed control at 250 g/ha: 10%
[3]
  pest or weed control at 15.625 g/ha: 0%
  pest or weed control at 62.5 g/ha: 0%
  pest or weed control at 250 g/ha: 20%
[4]
  pest or weed control at 15.625 g/ha: 0%
  pest or weed control at 62.5 g/ha: 10%
  pest or weed control at 250 g/ha: 0%
[5]
  pest or weed control at 15.625 g/ha: 50%
  pest or weed control at 62.5 g/ha: 60%
  pest or weed control at 250 g/ha: 60%
Corn (Zea mays) [6]
  plant injury at 15.625 g/ha: 10%
  plant injury at 62.5 g/ha: 40%
  plant injury at 250 g/ha: 60%
[7]
  pest or weed control at 15.625 g/ha: 60%
  pest or weed control at 62.5 g/ha: 70%
  pest or weed control at 250 g/ha: 80%
[8]
  pest or weed control at 15.625 g/ha: 0%
  pest or weed control at 62.5 g/ha: 0%
  pest or weed control at 250 g/ha: 0%
[9]
  pest or weed control at 15.625 g/ha: 0%
  pest or weed control at 62.5 g/ha: 0%
  pest or weed control at 250 g/ha: 0%
[10]
  pest or weed control at 15.625 g/ha: 0%
  pest or weed control at 62.5 g/ha: 0%
  pest or weed control at 250 g/ha: 0%
[11]
  pest or weed control at 15.625 g/ha: 70%
  pest or weed control at 62.5 g/ha: 80%
  pest or weed control at 250 g/ha: 80%
Corn (Zea mays) [12]
  plant injury at 15.625 g/ha: 0%
  plant injury at 62.5 g/ha: 50%
  plant injury at 250 g/ha: 70%

## COC(=O)c1cc([C@H]2CN(C)C(=O)[C@@H]2C(=O)Nc2ccccc2F)ccc1Cl (racemic) [Compound 1460]
[1]
  pest or weed control at 15.625 g/ha: 20%
  pest or weed control at 62.5 g/ha: 30%
  pest or weed control at 250 g/ha: 60%
[2]
  pest or weed control at 15.625 g/ha: 0%
  pest or weed control at 62.5 g/ha: 0%
  pest or weed control at 250 g/ha: 10%
[3]
  pest or weed control at 15.625 g/ha: 0%
  pest or weed control at 62.5 g/ha: 10%
  pest or weed control at 250 g/ha: 20%
[4]
  pest or weed control at 15.625 g/ha: 0%
  pest or weed control at 62.5 g/ha: 0%
  pest or weed control at 250 g/ha: 10%
[5]
  pest or weed control at 15.625 g/ha: 40%
  pest or weed control at 62.5 g/ha: 70%
  pest or weed control at 250 g/ha: 70%
Corn (Zea mays) [6]
  plant injury at 15.625 g/ha: 10%
  plant injury at 62.5 g/ha: 0%
  plant injury at 250 g/ha: 40%
[7]
  pest or weed control at 15.625 g/ha: 0%
  pest or weed control at 62.5 g/ha: 70%
  pest or weed control at 250 g/ha: 90%
[8]
  pest or weed control at 15.625 g/ha: 0%
  pest or weed control at 62.5 g/ha: 0%
  pest or weed control at 250 g/ha: 0%
[9]
  pest or weed control at 15.625 g/ha: 0%
  pest or weed control at 62.5 g/ha: 40%
  pest or weed control at 250 g/ha: 70%
[10]
  pest or weed control at 15.625 g/ha: 0%
  pest or weed control at 62.5 g/ha: 40%
  pest or weed control at 250 g/ha: 50%
[11]
  pest or weed control at 15.625 g/ha: 10%
  pest or weed control at 62.5 g/ha: 80%
  pest or weed control at 250 g/ha: 90%
Corn (Zea mays) [12]
  plant injury at 15.625 g/ha: 0%
  plant injury at 62.5 g/ha: 0%
  plant injury at 250 g/ha: 10%
